Assay results published in patent US20220145316A1, “CANCER IMMUNOTHERAPY” (priority 2019, published 2022).
*1 amine or outer side, *2 acyl side, *3 side chain or, on linkers, in order; H or OH if unused. Where a SMILES comes first, the peptide text is derived from it. [ ]: non-standard residue; d: D form. The star is where a group is joined. Dolaproine = CO[C@@H]([C@@H]1CCCN1)[C@@H](C)C(=O)O; Hexanoyl(6-maleimido) = O=C1C=CC(=O)N1CCCCCC(=O)*; Dil = CC[C@H](C)[C@H](NC)[C@@H](CC(=O)O)OC; PABC = O=C(OCc1ccc(N[*:1])cc1)[*:2]; X1 = C[C@@H](N*)[C@@H](O)c1ccccc1; Cit = NC(=O)NCCC[C@H](N)C(=O)O; NMeV = CN[C@H](C(=O)O)C(C)C

Columns and labels:
[1] = tested on: Raji-luc B lymphoma cells; assay: Drug delivery study in Raji B cell lymphoma model (survival, bioluminescence, kidney histology); type: in vivo, NSG mice
Protocol: Drug delivery study and histology: NSG male mice (7 weeks) were inoculated with 1×10^6 Raji-luc cells intravenously. […] For the first study, dosing started on day 3 and drugs/drug delivery system were injected i.p. every 4 days for a total of 6 injections. For the second study, dosing started on day 11 and drugs/drug delivery system were injected i.p. every 4 days for a total of 3 injections. For both studies, weekly bioluminescence imaging using the IVIS Spectrum was used to monitor lymphoma progression. […] Tissues were harvested for histology using H&E staining to show tumor burden or lack thereof.
Male NSG mice were injected intravenously with luciferase expressing Raji cells and monitored for lymphoma engraftment and progression using bioluminescence imaging. Tumor engrafted mice were randomly assigned to the treatment groups (n=5).
The MMAE dose was selected based on the fact that the known maximum tolerated dose (MTD) of free MMAE is 0.25-0.5 mg kg^−1 after a single administration. A dose of 0.125 mg/kg was chosen to allow for multiple treatments. Mice injected intravenously with Raji cells develop hind leg paralysis (due to the infiltration of neoplastic cells into the spinal canal) and/or lose weight prior to death. Therefore, hind leg paralysis or >15% loss in body weight were considered experimental endpoints at which mice were euthanized.

[2] = after a single administration; cited from earlier work
Raji cells = settings: read-out: IC50 (cytotoxicity), 72 hours
Protocol: (§1) Cell viability and proliferation in cell lines were estimated using a resazurin based assay (Prestoblue, Thermo Scientific). Cell viability in healthy B cells was measured using 7-AAD (Cayman Chemical Company, Ann Harbor, Mich.) cell exclusion using flow cytometric analysis gated on the B cell fraction (CD19-PE, BD Biosciences, Franklin Lakes, N.J.).

Daudi cells = settings: read-out: IC50 (cytotoxicity), 72 hours
Protocol: as §1

normal donor B cells = settings: normal B cells from healthy human donor, 72 hours
Protocol: as §1

| SMILES | histological analysis of kidney sections, lymphoma cell infiltration ([1]; H&E, PVX and MMAE mice when moribund, PVX-vcMMAE mice at end of study period) | lymphoma progression by bioluminescence imaging ([1]; first study: 6 i.p. injections every 4 days from day 3) | median survival ([1]; first study: 6 i.p. injections every 4 days from day 3, MMAE 0.125 mg/kg, PVX-vcMMAE 0.4 mg/kg, PVX 1 mg, PBS 45 days) | median survival ([1]; second study: 3 i.p. injections every 4 days from day 11, PBS 42 days) | maximum tolerated dose (MTD) [2] | IC50 (Raji cells) | IC50 (Daudi cells) | cytotoxicity towards non-dividing normal donor B cells (normal donor B cells) |
| --- | --- | --- | --- | --- | --- | --- | --- | --- |
| CC[C@H](C)[C@@H]([C@@H](CC(=O)N1CCC[C@H]1[C@H](OC)[C@@H](C)C(=O)N[C@H](C)[C@@H](O)c1ccccc1)OC)N(C)C(=O)[C@@H](NC(=O)[C@@H](NC)C(C)C)C(C)C [MMAE, (S)-N-((3R,4S,5S)-1-((S)-2-((1R,2R)-3-(((1S,2R)-1-hydroxy-1-phenylpropan-2-yl)amino)-1-methoxy-2-methyl-3-oxopropyl)pyrrolidin-1-yl)-3-methoxy-5-methyl-1-oxoheptan-4-yl)-N,3-dimethyl-2-((S)-3-methyl-2-(methylamino)butanamido)butanamide] (H-[NMeV]V[Dil][Dolaproine]-X1) | reduced lymphoma cell infiltration | partially limited lymphoma progression | 61 days | 39 days | 0.25 to 0.5 mg/kg | – | – | – |
| CC[C@H](C)[C@@H]([C@@H](CC(=O)N1CCC[C@H]1[C@H](OC)[C@@H](C)C(=O)N[C@H](C)[C@@H](O)c1ccccc1)OC)N(C)C(=O)[C@@H](NC(=O)[C@H](C(C)C)N(C)C(=O)OCc1ccc(NC(=O)[C@H](CCCNC(N)=O)NC(=O)[C@@H](NC(=O)CCCCCN2C(=O)C=CC2=O)C(C)C)cc1)C(C)C [vcMMAE] ({Hexanoyl(6-maleimido)}-V[Cit][PABC][NMeV]V[Dil][Dolaproine]-X1) | – | – | – | – | – | 160 nM | 80 nM | no cytotoxicity |
